Patent publication US8053599B2, “Drug containing (2R)-2-propyloctanoic acid as the active ingredient” (Ono Pharmaceutical Co., Ltd., priority 2003, dated 2011)

How the values were obtained:
[1] = solubility and behaviour in water; assay type: physicochemical
Description: The present inventors have attempted to prepare a medicament comprising (2R)-2-propyloctanoic acid or a salt thereof in a high concentration, which is useful for the treatment of neurodegenerative diseases including cerebral infarction, and which can be formulated to an injection which can be conveniently administered to a patient, if necessary, by means of the dissolution or dilution operation. […] The inventors have conducted studies to solve these problems and have found as a result that (2R)-2-propyloctanoic acid can be dissolved in water in a high concentration by mixing it with a strong alkali such as sodium hydroxide. […] Moreover, the solution in a high concentration was difficult to be stored for a long period of time because of the appearance of insoluble allotrio within the solution under long-term storage in conventional glass containers. Thus, there are problems in using a drug which is sensitive to a change in the drug concentration or in the pH of the solution, leading to a change such as clouding. That is, there is in fact the risk of clouding of the drug, upon preparing an injection which can be administered to a patient, by direct manipulation of a person involved in medical services, for combined use with other agents, or during the action of intravascular administration to a patient. […]

[2] = confirmation test of micelle formation (fat staining with Sudan III, absorbance of supernatant); assay type: physicochemical
Description: The fat staining method includes, for example, a method of mixing a solution of a fat-soluble dye (for example, Sudan III, piacyanol chloride, Rhodamine 6G, etc.) with the solution under test, followed by centrifugation after a certain period of time, and measuring the absorbance of the supernatant which is inherent to the fat-soluble dye used. If the absorbance of the supernatant can be measured according to this test method, it implies that the fat-soluble dye is present within micelles, that is, micelles have been formed, and thus it is possible to determine that a micelle water dispersion liquid has been formed. It is also possible to define the critical concentration of micelle formation, that is, a critical micelle concentration (CMC), by means of such a test.
The critical micelle concentration cannot be exactly determined since it depends on the substance forming micelles, the type of co-existing ions and the concentration thereof, the ionic strength, and even on temperature. […]
Into a spitz made of glass, the Sudan III solution prepared in the above (2) (400 μL) was added, and ethanol was evaporated Each of the (2R)-2-propyloctanoic acid solutions of various concentrations prepared in the above (1) was added thereto, and the mixture was subjected to sonication and stirring. […] The absorbance of the supernatant was measured at a wavelength of 502 nm.

dog = assay: single intravenous administration toxicity using a dog; assay type: in vivo; conditions: dose of 100 mg/kg

Structure (SMILES) | pH and clouding of solution in water ([1]; dissolved in water) | solubility in water ([1]; water) | critical micelle concentration ([2]; aqueous medicament comprising about 1 to about 5 equivalents of basic sodium ion based on 1 equivalent of (2R)-2-propyloctanoic acid, room temperature) | concentration at which micelle formation occurred ([2]; aqueous solution with trisodium phosphate dodecahydrate, Sudan III, left at room temperature for 1 day, absorbance at 502 nm) | death after single intravenous administration (dog)
CCCCCC[C@@H](CCC)C(=O)[O-].[Na+] [(2R)-2-propyloctanoic acid-sodium salt] | has a high pH and is susceptible to clouding under slight fluctuations of the pH |  |  |  | 
CCCCCC[C@@H](CCC)C(=O)O [(2R)-2-propyloctanoic acid] |  | insoluble and immiscible in water | 20 to 25 mg/mL | about 20 mg/mL | did not result in death
